Measured values reported in patent US20230114123A1, “METHOD OF STIMULATING ASYMMETRIC DIVISION OF SATELLITE STEM CELLS” (Ottawa Hospital Research Institute, priority 2017, published 2023).

Experiments:
EGFR phosphorylation = experiment: p-EGFR immunoblot in serum-starved, re-fed primary myoblasts; type: cell-based, mouse; settings: 1 h
Procedure: Cell Culture and Co-Immunoprecipitation. Satellite cells were isolated from WT mice by fluorescence activated cell sorting and cultured as primary myoblasts on collagen-coated plates in primary myoblast growth media (Ham's F10 media (Gibco) with 20% FBS (Wisent), 1% penicillin-streptomycin (Gibco) and 5 ng/mL bFGF (Cedarlane)).
Immunoblotting. Proteins were separated on 10% SDS-PAGE and transferred to Immobilon-P PVDF membrane (EMD Millipore). Membranes were probed with primary antibodies, followed by light chain specific HRP-conjugated secondary antibodies at 1:5000 (Bio-Rad) and developed using Immobilon Western HRP substrate (EMD Millipore). Membranes were visualized using FluorChem HD2 (Alpha Innotech) or exposed to BIOMAX film (Eastman Kodak).

[1] = test system: regenerating mdx TA muscles; experiment: Cardiotoxin-induced injury of TA muscle in mdx mice, intramuscular treatment; type: in vivo, mouse
Source text: Previously, the inventors observed that dystrophin- or Dag1-deficient muscles generate reduced numbers of Pax7-expressing and Myog-expressing cells following CTX-injury.
PTP1b inhibitor was concurrently administered with cardiotoxin into mdx TA muscles and supplemented again 2 days after the injury (FIG. 13A). To assess the muscle stem cell function after injury and the regenerative capacity of the treated mdx muscles, the inventors examined the histology of the regenerating muscles 10 days post cardiotoxin injection. Whereas the control vehicle treated muscles still contained large areas of necrotic fibers (msIgG+), the muscles treated with PTP1b inhibitors were better regenerated as evidenced by the presence of 50% […] Myh3-expressing myofibers (FIG. 13B). […] These findings are consistent with PTP1b inhibition inducing an increase in EGFR signaling and accelerated de novo myofiber formation in regenerating mdx muscles (FIG. 14).
Electroporation and Cardiotoxin Injury. Intramuscular (i.m.) cardiotoxin injections (Latoxan, 50 μl of 10 μM solution in saline) were injected directly into the right TA muscle through the skin under general anesthesia. For pharmacological inhibition, Lapatinib ditosylate (1 mM in DMSO; Santa Cruz Biotechnology), the PTP1b inhibitor CAS 765317-72-4 (10 mM in DMSO; Santa Cruz Biotechnologies) was mixed into the cardiotoxin solution for a final concentration of 1 μM or 20 μM, respectively; equal dilution of DMSO was used as vehicle control. Supplemental injection of inhibitors (20 μL of 2.5 μM of Lapatibin or 50 μM of PTP1b inhibitor diluted in saline) was performed 2 days after cardiotoxin injection.
Muscle samples were embedded in OCT embedding compound and frozen in liquid nitrogen cooled isopentane and cryosectioned in 12-μm slices. Cross-sections were washed once with PBS and fixed in 2% PFA 10 min, permeabilized with 0.1% Triton X-100/0.15 M Glycine/PBS for 10 min and extensively washed with PBS. Samples were blocked using M.O.M. Blocking reagent (Vector) for 2 h followed by additional blocking in 5% NGS/2% BSA at 4° C. over night. Primary antibodies were applied in blocking at 4° C. over night. Samples were washed extensively in PBS and secondary antibodies were applied in PBS (Alexa Flour 546, 647) for 1 h at room temperature. Following PBS washes, cross-sections were counterstained with DAPI ([…]) for 10 min and mounted with Permaflour (Fisher).
Histological Analysis of Muscle Sections. For Fiber type analysis, non-fixed samples were washed with PBS and blocked in 10% normal goat serum (NGS) for 1 hr at room temperature. Primary antibodies were applied in 10% NGS for 2 h at room temperature. Sections were washed extensively with PBS and secondary antibodies were applied in PBS for 1 h at room temperature. Following PBS washes, sections were counterstained with DAPI for 10 min and mounted with Permaflour. Antibodies were as follows: mouse anti-MyH3 (clone F1.652, DSHB), mouse anti-MyH4 (clone BF-F3, DSHB).
For analysis of myofiber Feret's diameter, non-fixed samples were washed with PBS and stained with Wheat Germ Agglutinin Alexa 647 conjugate (Fisher) for 1 h at room temperature. Samples were washed once with PBS and counterstained with DAPI. Samples were washed with PBS and mounted with Permaflour. Images were taken immediately following staining. Minimum fiber Feret measurement was performed using the SMASH software in MATLAB 2015a as described in Smith, L. R., and Barton, E. R. (2014) SMASH—semi-automatic muscle analysis using segmentation of histology: a MATLAB application. Skelet. Muscle 4, 21, which is incorporated herein by reference. Samples with significant staining artifacts were excluded from automated analyses.

satellite stem cells = experiment: EDL myofiber culture, satellite stem cell divisions (Myf5-Cre/R26R-eYFP, wild type); type: cell-based, mouse; settings: for Average number of asymmetric divisons/fiber / Proportion of YFP- divisions that are asymmetric divisions: WT myofibers, 42 h of culture
Procedure: EGFR Signaling Regulates Asymmetric Satellite Stem Cell Divisions. To assess the role of EGFR in asymmetric division, the inventors cultured satellite cells in myofibers isolated from Extensor digitorum longus (EDL) muscles from Myf5-Cre/R26R-eYFP mice and performed both loss-of-function and gain-of-function experiments. Isolated myofibers were first cultured for 42 h with and without treatment with the Lapatinib, a specific inhibitor of EGFR signaling.
EDL fiber Culture and siRNA Transfection. Myofiber culture was performed as described in Dumont, N. A., et al. “Dystrophin expression in muscle stem cells regulates their polarity and asymmetric division.” Nat. Med. (2015) 21:1455-63, which is incorporated herein by reference. Briefly, EDL were carefully dissected and incubated in DMEM with 2% L-glutamine, 4.5% glucose, and 110 mg/mL sodium pyruvate (Gibco) containing 0.2% collagenase I (Sigma) for 45 min. Myofibers were isolated using gentle trituration with a glass pipet. Myofibers were cultured for 36, 42, or 72 h in DMEM containing 20% FBS (Wisent), 1% chick embryo extract (MP Biomedicals), and 2.5 ng/ml bFGF (Cedarlane). For pharmacological inhibition, Lapatinib ditosylate (1 mM in DMSO; Santa
Cruz Biotechnology), PTP1b inhibitor CAS 765317-72-4 (10 mM in DMSO; Santa Cruz Biotechnologies) was added to the culture medium for a final concentration of 1 μM or 10 μM, respectively; equal dilution of DMSO was used as vehicle control.
Transfection of satellite cells on myofibers was performed using lipofectamine RNAimax (Life Technologies) and validated Smartpool siRNAs for EGFR, Aurka, or scramble (SCR) (Dharmacon). Two transfections were performed at 4 h and 16 h after isolation of the myofibers as described in Le Grand, et al. (2009) Wnt7a activates the planar cell polarity pathway to drive the symmetric expansion of satellite stem cells. Cell Stem Cell 4, pp 535-547, which is incorporated herein by reference. Knockdown efficiencies of the siRNA were validated in myoblasts by western blot and qRT-PCR.

Molecule	increase in EGFR phosphorylation (p-EGFR grey values) (EGFR phosphorylation; growth media alone, FIGS. 12A and 12B) [%]	increase in EGFR phosphorylation (p-EGFR grey values) (EGFR phosphorylation; in the presence of added recombinant EGF) [%]	fewer Myh3-expressing myofibers vs vehicle ([1]; PTP1b inhibitor with cardiotoxin and again 2 days after, 10 days post injection, FIG. 13B) [%]	increase in muscle mass compared to vehicle treated controls ([1]; PTP1b inhibitor, 10 days post cardiotoxin, FIG. 13C) [%]	numbers of satellite cells (Pax7+) ([1]; PTP1b inhibitor, 10 days post cardiotoxin, FIG. 13F)	increase on average in Feret's diameters of myofibers compared to control muscles ([1]; PTP1b inhibitor, 10 days post cardiotoxin, FIGS. 13D and E) [fold]	Average number of asymmetric divisons/fiber (satellite stem cells)	Proportion of YFP- divisions that are asymmetric divisions (satellite stem cells) [%]	increase in Pax7-expressing cells ([1]; 10 ng recombinant EGF IM at CTX injury and 2 d after, 10 days post injury, FIG. 5B) [%]	increase in the numbers of Myog-expressing cells ([1]; 10 ng recombinant EGF IM at CTX injury and 2 d after, 10 days post injury, FIG. 5C) [%]	Feret's diameter of regenerating myofibers ([1]; EGF-treated vs vehicle-injected controls, 10 days post injury)	increase in the rate of asymmetric satellite stem cell division (satellite stem cells; 42 h culture, recombinant EGF 100 ng/mL vs vehicle, FIG. 2A) [fold]	increase in asymmetric division, WT satellite cells (satellite stem cells; 42 h culture, recombinant EGF vs vehicle, FIG. 4A) [%]
CCc1oc2cc(S(=O)(=O)Nc3ccc(S(=O)(=O)Nc4nccs4)cc3)ccc2c1C(=O)c1cc(Br)c(O)c(Br)c1 [PTP1b inhibitor, 3-(3,5-dibromo-4-hydroxy-benzoyl)-2-ethyl-benzofuran-6-sulfonicacid-(4-(thiazol-2-ylsulfamyl)-phenyl)-amide, reference compound]	80	20	50	14	increased numbers of satellite cells	2	0.988	66.70					
EGF: human recombinant EGF protein (Life Technologies), direct activator of the EGFR pathway							0.939	70.86	26	50	an increase in Feret's diameter	2.5	29
